Assay results taken from article PMC10763724 (Molecular cancer therapeutics, 2019).
Where two headings read alike, the source gives them in different places. Values belong to the compound of their own block, whether it stands above or below them.

Legend:
ALDH1A1 [1] = conditions: cited from earlier work
ALDH2 [2] = conditions: read-out: IC50 for ALDH2; cited from earlier work
ALDH3A1 [3] = conditions: cited from earlier work
HNSCC xenograft models = conditions: 24 mg/kg/day, implantable osmotic mini pumps; cited from earlier work
ALDH1A1 [4] = target: T1, ALDH1A1 (Homo sapiens, UniProt P00352); assay: ALDH1A1 isoform-specific enzyme assay; format: biochemical; conditions: 15 minutes preincubation
T1 sequence (P00352 1-501): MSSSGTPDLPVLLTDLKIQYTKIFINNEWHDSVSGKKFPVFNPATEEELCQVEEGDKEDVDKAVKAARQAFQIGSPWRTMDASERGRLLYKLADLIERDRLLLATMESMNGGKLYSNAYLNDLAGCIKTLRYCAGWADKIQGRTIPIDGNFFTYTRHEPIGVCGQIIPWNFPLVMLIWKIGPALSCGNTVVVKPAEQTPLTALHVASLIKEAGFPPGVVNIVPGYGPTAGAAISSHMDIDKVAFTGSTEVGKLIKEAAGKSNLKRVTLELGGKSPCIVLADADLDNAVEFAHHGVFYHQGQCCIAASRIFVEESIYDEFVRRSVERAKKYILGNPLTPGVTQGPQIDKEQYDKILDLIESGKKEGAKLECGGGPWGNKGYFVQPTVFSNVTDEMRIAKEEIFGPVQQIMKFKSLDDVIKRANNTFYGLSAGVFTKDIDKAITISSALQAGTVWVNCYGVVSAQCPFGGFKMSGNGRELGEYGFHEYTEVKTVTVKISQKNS

ALDH2 [5] = target: T2, ALDH2 (Homo sapiens, UniProt P05091); assay: ALDH2 isoform-specific enzyme assay; format: biochemical; conditions: read-out: IC50s ALDH2; acetaldehyde substrate, 15 minutes preincubation
T2 sequence (P05091 18-517): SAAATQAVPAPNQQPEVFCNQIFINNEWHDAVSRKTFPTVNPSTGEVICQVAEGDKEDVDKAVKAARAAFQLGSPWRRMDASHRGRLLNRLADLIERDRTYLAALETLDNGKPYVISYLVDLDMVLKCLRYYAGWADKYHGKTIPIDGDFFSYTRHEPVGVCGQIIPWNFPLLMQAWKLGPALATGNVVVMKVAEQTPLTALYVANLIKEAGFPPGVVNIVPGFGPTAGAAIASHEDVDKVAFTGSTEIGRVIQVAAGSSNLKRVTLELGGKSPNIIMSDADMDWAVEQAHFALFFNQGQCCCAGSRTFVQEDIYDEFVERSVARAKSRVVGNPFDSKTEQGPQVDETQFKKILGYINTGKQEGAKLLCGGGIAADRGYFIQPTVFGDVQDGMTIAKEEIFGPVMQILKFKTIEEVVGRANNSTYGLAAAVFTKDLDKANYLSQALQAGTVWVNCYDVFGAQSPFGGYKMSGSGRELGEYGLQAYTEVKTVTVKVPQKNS

[6] = tested on: UACC 903 and 1205 Lu cells; assay: ROS assay; format: cell-based, human; conditions: 5 μmol/L, 24 hours
[7] = tested on: UACC 903 and 1205 Lu cells; assay: Lipid peroxidation; format: cell-based, human; conditions: 5 μmol/L, 24 hours
ALDH3A1 [8] = target: T3, ALDH3A1 (Homo sapiens, UniProt P30838); assay: ALDH3A1 isoform-specific enzyme assay; format: biochemical; conditions: 15 minutes preincubation
T3 sequence (P30838 1-453): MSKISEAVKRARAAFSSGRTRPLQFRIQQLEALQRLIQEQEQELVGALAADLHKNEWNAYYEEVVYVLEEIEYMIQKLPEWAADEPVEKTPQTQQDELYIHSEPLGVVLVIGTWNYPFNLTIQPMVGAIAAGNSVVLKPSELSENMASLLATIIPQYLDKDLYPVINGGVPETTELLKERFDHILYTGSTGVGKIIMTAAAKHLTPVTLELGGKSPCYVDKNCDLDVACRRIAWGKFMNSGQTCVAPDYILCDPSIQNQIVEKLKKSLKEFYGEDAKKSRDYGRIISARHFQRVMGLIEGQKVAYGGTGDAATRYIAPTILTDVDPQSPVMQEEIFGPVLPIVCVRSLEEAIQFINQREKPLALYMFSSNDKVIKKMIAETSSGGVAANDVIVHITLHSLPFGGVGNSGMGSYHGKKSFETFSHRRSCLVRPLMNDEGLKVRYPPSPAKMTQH

UACC 903 cells = assay: MTS cell viability assay, UACC 903; format: cell-based, human; conditions: 100 μmol/L, 72 hours
[9] = tested on: total cellular ALDH activity, UACC 903 cell lysates; assay: Total cellular ALDH activity assay, UACC 903 cell lysates; format: biochemical, human; conditions: 1 μmol/L, 15 minutes
[10] = tested on: total cellular ALDH activity, 1205 Lu cell lysates; assay: Total cellular ALDH activity assay, 1205 Lu cell lysates; format: biochemical, human; conditions: 1 μmol/L, 15 minutes

Compound: CN(C)CCC(=O)c1ccc(Br)cc1 [Aldi-6]
- IC50 (ALDH1A1 [1]; read-out: IC50 for ALDH1A1): 0.6 µM
- IC50 (ALDH2 [2]): 0.8 µM
- IC50 (ALDH3A1 [3]; read-out: IC50 for ALDH3A1): 1 µM
- tumor reduction in HNSCC xenograft models (HNSCC xenograft models): 60%

- IC50 (ALDH1A1 [4]; read-out: IC50s ALDH1A1, propionaldehyde substrate): 139 µM
- IC50 (ALDH2 [5]): 144 µM
Compound: Cc1nc2ccccc2n1S(=O)(=O)c1ccc(F)cc1 [CB7]

Compound: CCOC(=O)CSc1nc2c(sc3ccccc32)c(=O)n1CCCN1CCCC1 [CM037]
- ROS levels [6]: significantly increased ROS levels
- lipid peroxidation and toxic aldehyde accumulation [7]: significantly increased lipid peroxidation and toxic aldehyde accumulation

Compound: CCN(CC)c1ccc(C=O)cc1 [DEAB]
- IC50 (ALDH3A1 [8]; read-out: IC50s ALDH3A1, 4-nitrobenzaldehyde substrate): 15.1 µM
- reduction of UACC 903 cell survival (UACC 903 cells): 30%
- ROS levels [6]: significantly increased ROS levels
- lipid peroxidation and toxic aldehyde accumulation [7]: significantly increased lipid peroxidation and toxic aldehyde accumulation

Compound: CSC(=O)C#CC(C)(C)N(C)C [DIMATE, 4-dimethylamino-4-methyl–pent-2-ynthioic acid-S-methylester]
- IC50 (ALDH1A1 [1]; read-out: IC50 toward ALDH1A1): 5 µM
- IC50 (ALDH3A1 [3]; read-out: IC50 toward ALDH3A1): 5 µM

- IC50 (ALDH1A1 [4]; IC50s ALDH1A1, propionaldehyde substrate): 15.6 µM
- IC50 (ALDH3A1 [8]; IC50s ALDH3A1, 4-nitrobenzaldehyde substrate): 5.05 µM
Compound: O=C1Nc2ccccc2C1=O [Isatin]
- reduction of total cellular ALDH activity, UACC 903 [9]: ineffective
- reduction of total cellular ALDH activity, 1205 Lu [10]: ineffective
